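Protocol summary: plate cells (96-well), add compound at 5 concentrations, incubate 48 h, interpolate endpoints linearly. The concentration for 50% growth inhibition is given as GI50.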 Activity calls are given as the source filed them. No stated cut-off is given here; in the data, active = GI50 up to about 1.1 µM and inactive = higher.
How the values were obtained:
Assay in all cases: growth of human tumour cells (NCI), 48 h
COLO 205 = test system: COLO 205
MCF7 = test system: MCF7
SF-268 = test system: SF-268
CCRF-CEM = test system: CCRF-CEM
SK-MEL-28 = test system: SK-MEL-28
786-0 = test system: 786-0
SW-620 = test system: SW-620
BT-549 = test system: BT-549
UACC-257 = test system: UACC-257
SK-MEL-5 = test system: SK-MEL-5
KM12 = test system: KM12
EKVX = test system: EKVX
SK-MEL-2 = test system: SK-MEL-2
K562 = test system: K562
SR = test system: SR
HT-29 = test system: HT-29
NCI-H23 = test system: NCI-H23
U-251 = test system: U-251
OVCAR-3 = test system: OVCAR-3
HCC 2998 = test system: HCC 2998

Structure (SMILES)	GI50 (COLO 205)	GI50 (MCF7)	GI50 (SF-268)	GI50 (CCRF-CEM)	GI50 (SK-MEL-28)	GI50 (786-0)	GI50 (SW-620)	GI50 (BT-549)	GI50 (UACC-257)	GI50 (SK-MEL-5)	GI50 (KM12)	GI50 (EKVX)	GI50 (SK-MEL-2)	GI50 (K562)	GI50 (SR)	GI50 (HT-29)	GI50 (NCI-H23)	GI50 (U-251)	GI50 (OVCAR-3)	GI50 (HCC 2998)
CC1(O)CCC(C(C)(C)O)CC1 (stereo not given) [TERPIN]	> 100 µM (inactive)	> 100 µM (inactive)	> 100 µM (inactive)	> 100 µM (inactive)	> 100 µM (inactive)	> 100 µM (inactive)	> 100 µM (inactive)	> 100 µM (inactive)	> 100 µM (inactive)	> 100 µM (inactive)	> 100 µM (inactive)	0.505 µM (active)	> 100 µM (inactive)	> 100 µM (inactive)	> 100 µM (inactive)	> 100 µM (inactive)	> 100 µM (inactive)	> 100 µM (inactive)	> 100 µM (inactive)	> 100 µM (inactive)
CC1=NN(c2nc(N)nc(CCl)n2)CC1	18.5 µM (inactive)	38.1 µM (inactive)	32.7 µM (inactive)	14.9 µM (inactive)	22.8 µM (inactive)	10.1 µM (inactive)	23.3 µM (inactive)	31 µM (inactive)	69.5 µM (inactive)	14.8 µM (inactive)	16.4 µM (inactive)	16.1 µM (inactive)	26.6 µM (inactive)	18.2 µM (inactive)	20.8 µM (inactive)	30.4 µM (inactive)	19.3 µM (inactive)	29.4 µM (inactive)	13.4 µM (inactive)	31.2 µM (inactive)
CC1C(=O)O[B-]2(c3ccccc3)Oc3ccccc3C=[N+]12 (stereo not given)	> 100 µM (inactive)	61.2 µM (inactive)	> 100 µM (inactive)	> 100 µM (inactive)	> 100 µM (inactive)	> 100 µM (inactive)	> 100 µM (inactive)	> 100 µM (inactive)	> 100 µM (inactive)	> 100 µM (inactive)	> 100 µM (inactive)	> 100 µM (inactive)	> 100 µM (inactive)	> 100 µM (inactive)	> 100 µM (inactive)	> 100 µM (inactive)	> 100 µM (inactive)	> 100 µM (inactive)	> 100 µM (inactive)	> 100 µM (inactive)
C/C(=C\COc1ccc2ccc(=O)oc2c1)CCC(=O)C(C)(C)O	20.7 µM (inactive)	19.1 µM (inactive)	41.8 µM (inactive)	16.4 µM (inactive)	39.9 µM (inactive)	18.3 µM (inactive)	19.5 µM (inactive)	18.1 µM (inactive)	28 µM (inactive)	16.5 µM (inactive)	18.5 µM (inactive)	34 µM (inactive)	39.1 µM (inactive)	16.2 µM (inactive)	15.3 µM (inactive)	23.2 µM (inactive)	33 µM (inactive)	19.8 µM (inactive)	17.9 µM (inactive)	19.9 µM (inactive)
C=C1c2nc3ccccc3n2C=C(c2ccc(OC)cc2)N1c1ccc(OCCN2CCCCC2)cc1	18.7 µM (inactive)	9.16 µM (inactive)	> 30.4 µM (inactive)	2.79 µM (inactive)	31.2 µM (inactive)	14.2 µM (inactive)	6.27 µM (inactive)	11.7 µM (inactive)	1.49 µM (inactive)	7.45 µM (inactive)	8 µM (inactive)	40.9 µM (inactive)	22.1 µM (inactive)	4.83 µM (inactive)	4.44 µM (inactive)	20 µM (inactive)	6.32 µM (inactive)	7.59 µM (inactive)	19.9 µM (inactive)	16 µM (inactive)
N#C/C(N)=C(\C#N)NC(=O)C(=O)N/C(C#N)=C(\N)C#N	> 100 µM (inactive)	> 100 µM (inactive)	> 100 µM (inactive)	77.6 µM (inactive)	> 100 µM (inactive)	> 100 µM (inactive)	> 100 µM (inactive)	> 100 µM (inactive)	> 100 µM (inactive)	> 100 µM (inactive)	> 100 µM (inactive)	> 100 µM (inactive)	> 100 µM (inactive)	> 100 µM (inactive)	58.2 µM (inactive)	> 100 µM (inactive)	> 100 µM (inactive)	> 100 µM (inactive)	13 µM (inactive)	> 100 µM (inactive)
O=C(NC(N1CCN(c2cc3c(cc2F)c(=O)c(C(=O)O)cn3C2CC2)CC1)(C(F)(F)F)C(F)(F)F)c1ccccc1	19.1 µM (inactive)	29.8 µM (inactive)	40.9 µM (inactive)	24.7 µM (inactive)	55.8 µM (inactive)	45.2 µM (inactive)	40.5 µM (inactive)	51.2 µM (inactive)	26.8 µM (inactive)	26 µM (inactive)	29.2 µM (inactive)	35.6 µM (inactive)	34.9 µM (inactive)	39.4 µM (inactive)	29.8 µM (inactive)	24.1 µM (inactive)	25.9 µM (inactive)	37.3 µM (inactive)	43.5 µM (inactive)	23.8 µM (inactive)
COC(=O)C1Cc2cc3c(cc2C1=O)CCC3 (stereo not given)	> 100 µM (inactive)	> 100 µM (inactive)	> 100 µM (inactive)	92.7 µM (inactive)	> 100 µM (inactive)	> 100 µM (inactive)	> 100 µM (inactive)	> 100 µM (inactive)	> 100 µM (inactive)	> 100 µM (inactive)	> 100 µM (inactive)	> 100 µM (inactive)	> 100 µM (inactive)	43 µM (inactive)	> 100 µM (inactive)	> 100 µM (inactive)	> 100 µM (inactive)	> 100 µM (inactive)	> 100 µM (inactive)	> 100 µM (inactive)
